Test results from patent US20030220329A1, “Method of improving beta-adrenergic receptor function” (DUKE UNIVERSITY, priority 1999, published 2003).
Marks after values point to notes of the source that are not given here.

Experiments:
[1] = Fasting plasma glucose, insulin and leptin; format: in vivo, B6 mice; conditions: for Fasting plasma glucose: termination of / throughout the study
Experimental: (§1) Animals and Diets. Seventy-five 4-week old B6 male mice were obtained from Jackson Laboratories (Bar Harbor, Me.). The animals were housed 5 per cage in a temperature controlled (22° C.) room with a 12 hour light/dark cycle (lights off at 19:00). The HF and low fat (LF) experimental diets were manufactured by Research Diets (New Brunswick, N.J.), and contain 58% and 11% of calories from fat, respectively. The composition of these diets have been described in detail elsewhere (Surwit et al. Metabolism 44:645-651 (1995)). A group of 60 mice were fed the HF diet for the first four weeks of the study; the remaining 15 mice were fed the LF diet. The mice assigned to the LF diet were maintained on this diet throughout the study as a reference group of lean control mice. At week 4, all HF-fed mice were assigned to 4 groups of 15 mice each. The first group remained on the HF diet throughout the study as the “obese” control group. The remaining 3 groups of mice were fed the HF diet containing either the β3AR agonist CL316,243 (CL), diazoxide (Dz) or the combination of the two compounds (CLDz). The CL concentration in the diets was 1 mg/kg (0.001%). This dose had originally been recommended by Dr. Thomas Claus, of Lederle Laboratories and found to be differentially effective in reducing obesity in obesity-prone B6 and obesity-resistant A/J mice (Collins et al, Obes. Res. 43:83-86 5:6S (1997)). The Dz concentration in the diets was 3.2 g/kg (0.32%) was determined to be the maximally effective dose for weight-reduction in dose-response pilot studies.
Glucose, Insulin, and Leptin. Samples for analysis of insulin, glucose, and leptin were collected as previously reported (Surwit et al. Metabolism 44:645-651 (1995), Collins et al., Endocrinology 138:405-413 (1997)) at day 24 (4 days before the diets were changed), at day 32 (4 days after the change) and biweekly thereafter. In all cases, food was removed 8 hours before samples were collected. Glucose was analyzed by the glucose oxidase method (Beckman Glucose Analyzer II). Insulin and leptin concentrations were determined by double antibody radioimmunoassay (Linco Research, St. Louis. Mo.). The insulin assay was based on a rat standard and the leptin assay used a mouse standard.

β3AR mRNA = experiment: Northern blot, β3AR mRNA in EWAT; format: in vivo, B6 mice; conditions: normalized to cyclophilin
UCP1 mRNA = experiment: Northern blot, UCP1 mRNA in IBAT and RP; format: in vivo, B6 mice; conditions: compared to the HF control
[2] = Fat pad weight and estimate of percent body fat; format: in vivo, B6 mice; conditions: wet weight after 4 weeks of drug treatment
Experimental: Animals and Diets. Seventy-five 4-week old B6 male mice were obtained from Jackson Laboratories (Bar Harbor, Me.). The animals were housed 5 per cage in a temperature controlled (22° C.) room with a 12 hour light/dark cycle (lights off at 19:00). The HF and low fat (LF) experimental diets were manufactured by Research Diets (New Brunswick, N.J.), and contain 58% and 11% of calories from fat, respectively. The composition of these diets have been described in detail elsewhere (Surwit et al. Metabolism 44:645-651 (1995)). A group of 60 mice were fed the HF diet for the first four weeks of the study; the remaining 15 mice were fed the LF diet. The mice assigned to the LF diet were maintained on this diet throughout the study as a reference group of lean control mice. At week 4, all HF-fed mice were assigned to 4 groups of 15 mice each. The first group remained on the HF diet throughout the study as the “obese” control group. […] This dose had originally been recommended by Dr. Thomas Claus, of Lederle Laboratories and found to be differentially effective in reducing obesity in obesity-prone B6 and obesity-resistant A/J mice (Collins et al, Obes. Res. 43:83-86 5:6S (1997)). The Dz concentration in the diets was 3.2 g/kg (0.32%) was determined to be the maximally effective dose for weight-reduction in dose-response pilot studies. Tissue Collection. After 4 weeks of drug treatment, a subset of 10 animals from each group was killed. […] Percent Body Fat. The percent body fat was estimated from the weight of the epididymal fat pad. It has been shown that, as a proportion of total body weight, the epididymal fat pad weight is highly correlated with percent body fat (Rogers et al, Brit. J. Nutr. 43:83-86 (1980), Eisen et al, Growth 45:100-107 (1981)).

β3AR = target: T1, β3AR (Mus musculus, UniProt P25962); experiment: β3AR-stimulated adenylyl cyclase activity in EWAT plasma membranes from treated animals; format: biochemical, B6 mice; conditions: membranes from treated HF-fed animals
T1 construct: from tissue
T1 sequence (P25962 whole entry): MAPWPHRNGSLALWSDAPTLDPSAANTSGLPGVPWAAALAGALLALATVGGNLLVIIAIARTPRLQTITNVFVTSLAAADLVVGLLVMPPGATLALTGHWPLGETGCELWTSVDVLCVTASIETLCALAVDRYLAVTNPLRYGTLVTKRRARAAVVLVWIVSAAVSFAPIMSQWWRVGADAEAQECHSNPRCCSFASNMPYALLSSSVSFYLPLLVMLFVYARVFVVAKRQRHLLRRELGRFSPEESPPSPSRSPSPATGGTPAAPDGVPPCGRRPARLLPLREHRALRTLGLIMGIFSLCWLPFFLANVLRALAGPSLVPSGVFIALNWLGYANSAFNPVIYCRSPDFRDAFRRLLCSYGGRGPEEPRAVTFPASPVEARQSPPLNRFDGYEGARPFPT
Experimental: (§2) Tissue Collection. After 4 weeks of drug treatment, a subset of 10 animals from each group was killed. The epididymal white adipose tissue (EWAT), retroperitoneal (RP) fat, interscapular brown adipose tissue (IBAT) fat pads and gastrocnemius muscle were removed, trimmed, washed, and all tissues were flash-frozen in liquid nitrogen and stored at −80° C. for later determination of β3AR, (EWAT) UCP1 expression (IBAT and RP), UCP2 and 3 expression (IBAT) as well as β3AR-stimulated adenylyl cyclase activity (EWAT).
Preparation of plasma membranes and adenylyl cyclase assay. Adipose tissue was isolated from each group of animals. The tissues from 4 mice per group were pooled and minced and then plasma membranes prepared as previously described (Collins et al, Mol. Endocrinol. 8:518-527 (1994)). Adenylyl cyclase activity was measured using established methods, and the cAMP formed was measured by RIA (Harper et al, J. Cyclic Nucleotide Res. 1:207-218 (1975)) using a polyclonal anti-serum to cAMP (Gettys et al, J. Biol. Chem. 266:15949-15955 (1991)). Protein concentrations were determined by the Bradford method (Bradford. Anal. Biochem 72:248-254 (1976)).

[3] = system: glucose transport into white adipose tissue and muscle; experiment: Glucose transport into adipose and muscle tissues (14C 2-deoxyglucose accumulation); format: in vivo, B6 mice; conditions: compared to HF control group
Experimental: as §1
Glucose Transport. Basal glucose transport into white adipose tissue and muscle was assessed following the method of Skillman and Fletcher (Skillman et al, Exp. Clin. Endocrinol. 87:288-298 (1986)) with minor modifications. Five mice from each group were injected i.p. with 50 mg/kg 2-deoxyglucose (20 μCi/kg ^14C 2-deoxyglucose) mixed with 2-deoxyglucose (final specific activity was 66 μCi/mmole). Twenty minutes later the mice were killed by cervical dislocation. […] The samples were neutralized with 1 M HCl and the ^14C content determined.

[4] = Postprandial plasma triglycerides and non-esterified fatty acids; format: in vivo, B6 mice; conditions: at termination of the study, HF diet + drug for 4 weeks
Experimental: Animals and Diets. Seventy-five 4-week old B6 male mice were obtained from Jackson Laboratories (Bar Harbor, Me.). The animals were housed 5 per cage in a temperature controlled (22° C.) room with a 12 hour light/dark cycle (lights off at 19:00). The HF and low fat (LF) experimental diets were manufactured by Research Diets (New Brunswick, N.J.), and contain 58% and 11% of calories from fat, respectively. The composition of these diets have been described in detail elsewhere (Surwit et al. Metabolism 44:645-651 (1995)). A group of 60 mice were fed the HF diet for the first four weeks of the study; the remaining 15 mice were fed the LF diet. The mice assigned to the LF diet were maintained on this diet throughout the study as a reference group of lean control mice. At week 4, all HF-fed mice were assigned to 4 groups of 15 mice each. The first group remained on the HF diet throughout the study as the “obese” control group. […] The Dz concentration in the diets was 3.2 g/kg (0.32%) was determined to be the maximally effective dose for weight-reduction in dose-response pilot studies.
Triglycerides and Non-Esterified Fatty Acids. At the termination of the study, a postprandial plasma sample was collected and analyzed for triglyceride and non-esterified fatty acid (NEFA) concentrations using kits from WAKO Diagnostics (Richmond. Va.).

UCP3 = UCP3 expression in IBAT; format: in vivo; conditions: HF-fed B6 mice
Experimental: as §2
Isolation and Analysis of RNA. Total cellular RNA was prepared using the tissues of 6 mice per group by the cesium chloride gradient method as detailed (Chirgwin et al, Biochemistry 18:5294-5399 (1979)). For Northern blot hybridization, RNA was denatured by the glyoxal procedure, fractionated through 1.2% agarose gels, and blotted onto Biotrans (ICN) nylon membranes (Collins et al, J. Biol. Chem. 263:9067-9070 (1988)). […] A rat cDNA probe for cyclophilin was used as an internal hybridization/quantitation standard. Blots were hybridized and washed as previously described (Collins et al, Mol. Endocrinol. 8:518-527 (1994), (Thomas. Proc. Natl. Acad. Sci. USA 77:5201-5205 (1980)). The intensity of hybridization signals was quantified by PhosphorImager (ImageQuant/Storm) and normalized to the values for cyclophilin.

Row | Structure (SMILES) | Fasting plasma glucose ([1]; compared to pretreatment) | β3AR mRNA levels in EWAT (β3AR mRNA) | UCP1 mRNA levels in IBAT (UCP1 mRNA) | Epididymal Fat Pad Weight [2] | Retroperitoneal Fat Pad Weight [2] | Adenylyl cyclase activity in response to CL in EWAT plasma membranes (β3AR) | Glucose transport into EWAT [3] | Glucose transport into RP ([3]; ANOVA trend p=0.07) | NEFA [4] | Fasting plasma insulin ([1]; end of / throughout the study, compared to pretreatment) | Leptin ([1]; plasma, at the conclusion of the study, HF diet + drug for 4 weeks) | UCP3 expression in IBAT (UCP3)
1 | C[C@H](Cc1ccc2c(c1)OC(C(=O)[O-])(C(=O)[O-])O2)NC[C@H](O)c1cccc(Cl)c1.[Na+].[Na+] [CL, disodium (R,R)-5-[2[[2-(3-chlorophenyl)-2-hydroxyethyl]-amino]propyl]-1,3-benzodioxole-2,2-dicarboxylate] | returned to the pretreatment values | failed to restore β3AR expression or function | greater increase in UCP1 expression | 0.943 +/− 0.129^b grams | 0.200 +/− 0.024^b grams | a general decrease in adenylyl cyclase activity | improved glucose transport into EWAT | enhanced glucose transport | 0.69 +/− 0.04^b mEq/L |  |  | 
2 | CC1=NS(=O)(=O)c2cc(Cl)ccc2N1 [Dz, diazoxide] | remained lower than pretreatment levels throughout the study | levels comparable to the LF fed controls | greater increase in UCP1 expression | 0.691 +/− 0.083^b,c grams | 0.123 +/− 0.014^b,c grams | restored the efficacy of the β3AR to stimulate adenylyl cyclase | did not reach a statistically significant level |  | 0.82 +/− 0.08^b mEq/L | remained significantly below pretreatment levels throughout the study | 4.2 +/− 0.8^c ng/ml | significant increase in UCP3 expression in IBAT
